The source of these data is ChEMBL document CHEMBL4402519, “The Mediterranean Diet as source of bioactive compounds with multi-targeting anti-cancer profile” (Eur J Med Chem, 2019).

For one assay, the system named is HL-60. The assay can be described thus: Growth inhibition of human HL60 cells after 72 hrs by MTT assay. Type of assay: functional, cell-based. The conditions noted are these: HL-60, 72 h. Background: Formazan colour is commonly taken as a measure of viable cells.
The subject of assay [1] is PC-3. The assay can be described thus: Antiproliferative activity against human PC3 cells after 24 hrs by MTT assay. The format is functional, cell-based. As to conditions: PC-3, 24 h.
Assay [2] relates to PC-3. The assay can be described thus: Antiproliferative activity against human PC3 cells after 48 hrs by MTT assay. Type of assay: functional, cell-based. As to conditions: PC-3, 48 h.
In assay [3] the test system is COLO 205. The assay can be described thus: Induction of apoptosis in human COLO205 cells after 24 hrs relative to control. The format is functional.
In assay [4] the test system is COLO 205. The assay can be described thus: Induction of apoptosis in human COLO205 cells after 24 hrs. Type of assay: functional, cell-based. The conditions noted are these: COLO 205, 24 h.

pIC50: −log10 of the molar value. ≈ marks a conversion by molar mass, not a printed value.

For orientation: IC50 means the point on the concentration scale where inhibition reaches its midpoint. A lower IC50 goes with greater potency. In the assay on HL-60, `O=C1c2c(O)cc(O)cc2O[C@H](c2ccc(O)c(O)c2)[C@H]1O` [(+)-TAXIFOLIN] registered an IC50 of 0.01 to 0.94 µg/mL (≈ 0.0329 to 3.09 µM).

One may read the pIC50 as the negative decadic logarithm of the IC50, by convention in mol/L. A low value points to a large IC50. Regarding `COc1ccc([C@@H]2CC(=O)c3c(O)cc(O)cc3O2)cc1O` [HESPERETIN], the pIC50 was 4.05 in the assay with PC-3 [1] and 4.40 in the assay with PC-3 [2].

In the assay on HL-60, `COc1ccc(-c2cc(=O)c3c(OC)c(OC)c(OC)c(OC)c3o2)cc1OC` [NOBILETIN] displayed an IC50 of 0.01 to 0.94 µg/mL (≈ 0.0249 to 2.34 µM).

For the molecule `O=c1c(O)c(-c2ccc(O)c(O)c2)oc2cc(O)cc(O)c12` [QUERCETIN], in the assay with HL-60, the IC50 was in the range of 0.01 to 0.94 µg/mL (≈ 0.0331 to 3.11 µM).

The molecule `CC(C)c1cc2c(c(O)c1O)[C@@]13CCCC(C)(C)[C@@H]1[C@H](OC3=O)[C@H]2O` [ROSMANOL] displayed an Activity in the assay with COLO 205 [3] of 51%. Also, in the assay on COLO 205 [4], the pIC50 is 4.38.

Regarding `COc1ccc(-c2cc(=O)c3c(OC)c(OC)c(OC)c(OC)c3o2)cc1` [TANGERETIN], the IC50 with HL-60 fell in the range of 0.01 to 0.94 µg/mL (≈ 0.0269 to 2.52 µM).
